Results from patent US20250243190A1, “NEW DEUTERATED RORGAMMA/RORGAMMAT INVERSE AGONISTS” (IMMUNIC AG, priority 2022, published 2025).

Experiments:
RORγt = biological target: T1, RORγt (Homo sapiens, UniProt P51449); assay: Indigo Biosciences Human RAR-related Orphan Receptor, Gamma Reporter Assay (in vitro inhibition of RORγt); assay type: cell-based; details: RORγt reporter cells, luciferase readout, 22-24 h incubation; read-out: IC50 range
T1 sequence (P51449 269-508 limits assumed): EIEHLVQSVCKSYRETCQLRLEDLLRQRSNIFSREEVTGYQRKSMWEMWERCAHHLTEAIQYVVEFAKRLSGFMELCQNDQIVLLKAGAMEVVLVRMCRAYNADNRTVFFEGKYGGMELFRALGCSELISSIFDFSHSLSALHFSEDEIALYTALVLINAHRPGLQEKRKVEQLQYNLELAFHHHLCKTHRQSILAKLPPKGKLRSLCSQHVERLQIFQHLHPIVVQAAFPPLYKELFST
Procedure: The in vitro inhibition of RORγt was measured using Indigo Biosciences Human RAR-related Orphan Receptor, Gamma Reporter Assay System (Product #IB304001-32) as described in the technical manual. In brief, 200 μL of Reporter Cells is dispensed into wells of the assay plate and preincubated for 4-6 h. Following the pre-incubation period, culture media are discarded and 200 µL/well of the prepared 1×-concentration treatment media are added. Following 22-24 h incubation, treatment media are discarded and Luciferase Detection Reagent is added. The intensity of light emission (in units of ‘Relative Light Units’; RLU) from each assay well is quantified using a plate-reading luminometer. Average values of RLU were determined for each treatment concentration. Non-linear regression analyses were performed and IC50 values determined using GraphPad Prism software. Provided inverse-agonists ursolic acid served as positive control.

SARS-CoV-2 = assay: Antiviral activity on SARS-CoV-2, viral replication (YFP) assay; assay type: cell-based; details: Severe acute respiratory syndrome coronavirus 2, read-out: EC50 range
Source text: (§1) The assay for viral replication (YFP) and the cell viability assay has been described in general in Pathogens 2021; 10:1076 and applied to compounds of the present invention furnished the following results: […]

[1] = Mouse pharmacokinetics, oral or intravenous cassette dosing; assay type: in vivo, mice (C57BL/6J); details: C57BL/6J, whole blood; for bioavailability: 5 mg/kg oral vs 1 mg/kg intravenous, read-out: F (bioavailability)
Procedure: The pharmacokinetics of the compounds of the present invention was evaluated in 3 male and 3 female mice (C57BL/6J, 8 week old) after oral or intravenous cassette dosing to assess the oral bioavailability. Dose was 5 mg/kg (oral) and 1 mg/kg (intravenous), application volume was 5 mL/kg (oral) and 0.5 mL/kg (intravenous), vehicle was 5% solutol, 95% NaCl solution (at 0.9% saline concentration) for oral and 5% solutol, 5% Ethanol, 90% NaCl solution (at 0.9% saline concentration) for intravenous. At each designated time point (0.25, 0.5, 1, 2, 4, 8 and 24 h after dosing), 20 μL whole blood were collected from the tail vein into Li-heparin tubes, frozen on dry ice within 1-2 minutes of sampling and stored at −20° C. until processed for LC-MS analysis. The obtained data is as follows:
(§2) The pharmacokinetics of additional compounds of the present invention was evaluated in 3 female mice (C57BL/6J, 8 week old) after oral cassette dosing. Dose was 5 mg/kg, application volume was 5 mL/kg, vehicle was 5% solutol, 95% NaCl solution (at 0.9% saline concentration). At each designated time point (0.5, 1, 2, 4, 8 and 24 h after dosing), 20 μL whole blood were collected from the tail vein into Li-heparin tubes, frozen on dry ice within 1-2 minutes of sampling and stored at −20° C. until processed for LC-MS analysis. The obtained data is as follows:
as §2, with “(0.25, 0.5,” for “(0.5,”, “4 and” for “4,”, “8” for “8 and 24”, “analysis.” for “analysis. The obtained data is as follows:”

[2] = Cell viability assay accompanying the SARS-CoV-2 assay; assay type: cell-based; details: cell viability assay of the SARS-CoV-2 test
Source text: as §1

[3] = Microsomal stability, human liver microsomes
Procedure: (§3) The conversion to the metabolite was monitored by HPLC-MS/MS. Verapamil served as positive control.
(§4) The metabolism was monitored by HPLC-MS/MS. Verapamil served as positive control. The intrinsic clearance was calculated from the measured remaining compound values.
as §4

[4] = Rat pharmacokinetics, oral or intravenous cassette dosing; assay type: in vivo, rats (strain Wistar RjHAN); details: for AUC(0-inf) / AUC(0-t) / C0 / CL/F / Cmax / bioavailability: Wistar RjHAN, rat, plasma; for bioavailability: po 5 mg/kg vs iv 1 mg/kg
Procedure: The pharmacokinetics of the deuterated compounds of the present invention was evaluated in 3 male and 3 female rats (strain Wistar RjHAN, 7-8 week old) after oral or intravenous cassette dosing to asses the oral bioavailability. Rats are provided with a catheter in the jugular vein (2-3 days prior to blood sampling). At each designated time point (1, 2, 4, 8 and 24 h after dosing), 100 μL blood were collected into Li-heparin tubes, stored on ice until centrifugation (10 minutes at 3000 g, 4° C.) and plasma was prepared within 45 min after collection, frozen at −20° C. and stored at this temperature until processed for LC-MS analysis.

[5] = Microsomal stability, mouse liver microsomes; details: mouse, 60 min
Procedure: as §3
The metabolism was monitored by HPLC-MS/MS.
Verapamil served as positive control. The intrinsic clearance was calculated from the measured remaining compound values.

[6] = Microsomal stability, rat liver microsomes; details: 60 min
Procedure: as §3, §4

[7] = 3 female mice, 5 mg/kg oral cassette, sampling 0.25-8 h
[8] = 3 female mice, 5 mg/kg oral cassette, sampling 0.25-8 h, read-out: AUC0-8 h

For `[2H]C([2H])(OC(C)C)c1c(-c2c(F)cccc2Cl)noc1-c1cnn(-c2cccc(Cl)c2)c1C(F)(F)F` [Example 102/1], the IC50 (RORγt) was under 10 nM, the EC50 (SARS-CoV-2) was under 100 nM and the Cmax [1, 7] was 922 ng/mL. The half-life [1, 7] was 2.6 h, the AUC(0-t) [1, 8] was 2350 ng·h/mL and the CC50 [2] was over 100000 nM.
In the case of `CC(O)Cn1ncc(-c2onc(-c3c(F)cccc3Cl)c2-c2ncccn2)c1C(F)(F)F` (stereo not shown) [Comparative Example C1/2, reference compound], the microsomal CLint ([3]; both) is reported as 15.7 µL/min/mg.
`[2H]C([2H])(OC([2H])(C([2H])([2H])[2H])C([2H])([2H])[2H])c1c(-c2c(F)cccc2Cl)noc1-c1cnn(-c2cccc(Cl)c2)c1C(F)(F)F` [Example 102/2] showed an IC50 (RORγt) of under 10 nM, an EC50 (SARS-CoV-2) of under 100 nM and a Cmax [1, 7] of 112 ng/mL. The half-life [1, 7] was 2.8 h, the AUC(0-t) [1, 8] was 280 ng·h/mL and the CC50 [2] was over 100000 nM.
Compound `[2H]C(C)(O)Cn1ncc(-c2onc(-c3c(F)cccc3Cl)c2-c2ncccn2)c1C(F)(F)F` (stereo not shown) [Comparative Example C1/1, reference compound] has a microsomal CLint ([3]; both) of 10.5 µL/min/mg.
`[2H]C([2H])([C@H](C)O)n1ncc(-c2onc(-c3c(F)cccc3Cl)c2-c2ncccn2)c1C(F)(F)F` [Example 1, (S)-1-(4-(3-(2-Chloro-6-fluorophenyl)-4-(pyrimidin-2-yl)isoxazol-5-yl)-5-(trifluoromethyl)-1H-pyrazol-1-yl)propan-1,1-d2-2-ol] showed an IC50 (RORγt) of 10 to 100 nM, an EC50 (SARS-CoV-2) of under 100 nM and a CC50 [2] of 22000 nM.
`[2H]C([2H])(CC(C)(C)O)n1ncc(-c2onc(-c3c(F)cccc3Cl)c2C(=O)OC)c1C(F)(F)F` [Example 7, Methyl 3-(2-chloro-6-fluorophenyl)-5-(1-(3-hydroxy-3-methylbutyl-1,1-d2)-5-(tri-fluoromethyl)-1H-pyrazol-4-yl)isoxazole-4-carboxylate] showed an IC50 (RORγt) of 10 to 100 nM, an EC50 (SARS-CoV-2) of under 100 nM and a CC50 [2] of 20000 nM.
For `[2H]C([2H])(CC(C)(C)O)n1ncc(-c2onc(-c3c(F)cccc3Cl)c2-c2ncccn2)c1C1CC1` [10/3], the IC50 (RORγt) was 100 to 1000 nM, the EC50 (SARS-CoV-2) was 100 to 1000 nM and the CC50 [2] was over 100000 nM.
`[2H]C([2H])(CC(C)(C)O)n1ncc(-c2onc(-c3c(F)cccc3Cl)c2-c2ncccn2)c1C(F)(F)F` [Example 3, 4-(4-(3-(2-Chloro-6-fluorophenyl)-4-(pyrimidin-2-yl)isoxazol-5-yl)-5-(trifluoromethyl)-1H-pyrazol-1-yl)-2-methylbutan-4,4-d2-2-ol] gave an AUC(0-inf) ([4]; female rats, iv 1 mg/kg) of 3780 ng·h/mL, an AUC(0-t) ([4]; female rats, iv 1 mg/kg) of 3660 ng·h/mL and a C0 ([4]; female rats, iv 1 mg/kg) of 2090 ng/mL. It also gave an AUC(0-inf) ([4]; female rats, po 5 mg/kg) of 2950 ng·h/mL, an AUC(0-t) ([4]; female rats, po 5 mg/kg) of 2930 ng·h/mL and a CL/F ([4]; female rats, po 5 mg/kg) of 132 mL/min/kg. For the same compound, the Cmax ([4]; female rats, po 5 mg/kg) was 629 ng/mL, the bioavailability ([4]; female rats) was 16% and the AUC(0-inf) ([4]; male rats, iv 1 mg/kg) was 3970 ng·h/mL. It also gave an AUC(0-t) ([4]; male rats, iv 1 mg/kg) of 3720 ng·h/mL, a C0 ([4]; male rats, iv 1 mg/kg) of 2460 ng/mL and an AUC(0-inf) ([4]; male rats, po 5 mg/kg) of 692 ng·h/mL. For the same compound, the AUC(0-t) ([4]; male rats, po 5 mg/kg) was 649 ng·h/mL, the CL/F ([4]; male rats, po 5 mg/kg) was 343 mL/min/kg and the Cmax ([4]; male rats, po 5 mg/kg) was 215 ng/mL. The bioavailability ([4]; male rats) was 3.5%, the t1/2z ([4]; female rats, iv 1 mg/kg) was 6.6 h and the t1/2z ([4]; female rats, po 5 mg/kg) was 3.2 h. It also gave a t1/2z ([4]; male rats, iv 1 mg/kg) of 7.2 h, a t1/2z ([4]; male rats, po 5 mg/kg) of 1.9 h and a microsomal CLint ([3]; both) of 2.2 µL/min/mg. It also gave a microsomal CLint ([3]; male) of 1.1 µL/min/mg, an IC50 (RORγt) of 10 to 100 nM and an EC50 (SARS-CoV-2) of under 100 nM. For the same compound, the bioavailability ([1]; female mice) was 34%, the half-life ([1]; female mice, 5 mg/kg oral, cassette) was 1.5 h and the AUC(0-t) ([1]; female mice, 5 mg/kg oral, cassette, read-out: AUC0-24 h) was 771 ng·h/mL. For the same compound, the Cmax ([1]; female mice, 5 mg/kg oral, cassette, sampling to 24 h) was 301 ng/mL, the bioavailability ([1]; male mice) was 93% and the half-life ([1]; male mice, 5 mg/kg oral, cassette) was 2.3 h. It also gave an AUC(0-t) ([1]; male mice, 5 mg/kg oral, cassette, read-out: AUC0-24 h) of 1040 ng·h/mL, a Cmax ([1]; male mice, 5 mg/kg oral, cassette, sampling to 24 h) of 392 ng/mL and a CC50 [2] of 22000 nM. The microsomal CLint ([5]; female, mouse liver microsomes batch 4338001 female (Corning)) was 43.9 µL/min/mg, the microsomal CLint ([5]; female, mouse liver microsomes batch MDO female (Bioreclamation IVT)) was 50.3 µL/min/mg and the microsomal CLint ([5]; male, mouse liver microsomes batch 0010003 male (Corning)) was 24 µL/min/mg. It also gave a microsomal CLint ([6]; rat liver microsomes batch 1910100 (Xenotech)) of 31.4 µL/min/mg, a microsomal CLint ([6]; rat liver microsomes batch 4085002 (Corning)) of 29.7 µL/min/mg and a microsomal CLint ([6]; rat liver microsomes batch 9078001 (Corning)) of 30.2 µL/min/mg.
In the case of `[2H]C([2H])([2H])OC([2H])([2H])c1c(-c2c(F)cccc2Cl)noc1-c1cnn(-c2cccc(Cl)c2)c1C(F)(F)F` [Example 110, 3-(2-Chloro-6-fluorophenyl)-5-(1-(3-chlorophenyl)-5-(trifluoromethyl)-1H-pyrazol-4-yl)-4-((methoxy-d3)methyl-d2)isoxazole], the IC50 (RORγt) is reported as under 10 nM, the EC50 (SARS-CoV-2) is reported as under 100 nM and the CC50 [2] is reported as over 100000 nM.
`[2H]C([2H])(CC(C)(C)O)n1ncc(-c2onc(-c3c(F)cccc3Cl)c2-c2ncccn2)c1C(F)F` [Example 4, 4-(4-(3-(2-Chloro-6-fluorophenyl)-4-(pyrimidin-2-yl)isoxazol-5-yl)-5-(difluoromethyl)-1H-pyrazol-1-yl)-2-methylbutan-4,4-d2-2-ol] gave an IC50 (RORγt) of 10 to 100 nM, an EC50 (SARS-CoV-2) of under 100 nM and a CC50 [2] of over 100000 nM.
With `[2H]C([2H])([2H])c1c(-c2onc(-c3c(F)cccc3Cl)c2-c2ncccn2)cnn1C([2H])([2H])CC(C)(C)O` [Example 10/1] the IC50 (RORγt) was 100 to 1000 nM, the EC50 (SARS-CoV-2) was 100 to 1000 nM and the CC50 [2] was over 100000 nM.
With `[2H]C([2H])(CC(C)(C)O)n1ncc(-c2onc(-c3c(F)cccc3Cl)c2-c2nccs2)c1C(F)(F)F` [Example 3-1] the IC50 (RORγt) was under 10 nM, the EC50 (SARS-CoV-2) was under 100 nM and the CC50 [2] was 17000 nM.
With `[2H]C(C)(O)C([2H])([2H])n1ncc(-c2onc(-c3c(F)cccc3Cl)c2-c2ncccn2)c1C(F)(F)F` (stereo not shown) [Example 1/1, 1-(4-(3-(2-Chloro-6-fluorophenyl)-4-(pyrimidin-2-yl)isoxazol-5-yl)-5-(trifluoromethyl)-1H-pyrazol-1-yl)propan-1,1,2-d3-2-ol] the microsomal CLint ([3]; both) was 7.8 µL/min/mg and the IC50 (RORγt) was 10 to 100 nM.
